Measurements taken from patent US5576022A, “Controlled release tacrine drug delivery systems and methods for preparing same” (Warner Lambert Company, priority 1995, dated 1996).

How the values were obtained:
[1] = Single-dose 40-mg pharmacokinetics of CR1, CR2, CR6 and CR7 capsules in healthy elderly volunteers (Example 12); type: in vivo, human; conditions: all of the formulations
Excerpt: The study objective was to determine the relative bioavailability and in vivo release characteristics of a 40-mg tacrine IR capsule (CR1) and three prototype 40-mg tacrine CR capsules (CR2, CR6 and CR7) to aid in the development of a tacrine controlled-release formulation. Sixteen healthy volunteers received a single 40-mg tacrine dose of CR1, CR2, CR6, or CR7 according to a randomized, 4-way crossover design (Table 6). Subjects ranged in age from 59 to 77 years (mean=67). […] Serial blood samples were drawn up to 24 hours following each dose and were subsequently analyzed for tacrine, 1-OH tacrine, 2-OH tacrine, and 4-OH tacrine.

[2] = Single-dose 40-mg pharmacokinetics of CR1, CR3, CR4 and CR5 capsules in healthy elderly volunteers (Example 11, Protocol 970-36); conditions: all of the formulations
Description: Subjects ranged in age form 50 to 74 years (mean=62). None of the subjects were smokers. Serial blood samples were drawn up to 24 hours following each dose and subsequently analyzed for tacrine.
Lag-time (tlag) between dose administration and apparent start of absorption was determined as the sampling time immediately preceding time of the first quantifiable plasma concentration.
Extent of absorption was assessed by evaluation of AUC(O-tldc) values. […] Relative extent of absorption values based on AUC(O-.infin.) values were similar to those based on AUC(O-tldc).

[3] = background; cited from earlier work

Compound | Plasma 1-OH tacrine concentrations relative to tacrine [1] | Plasma 1-OH tacrine concentrations relative to tacrine [2] | absorption and elimination in words [3]
Nc1c2c(nc3ccccc13)CCCC2O (stereo not drawn) [1-OH tacrine] | approximately three times higher | approximately two times higher | –
Cl.Nc1c2c(nc3ccccc13)CCCC2 [tacrine, 1,2,3,4-tetrahydro-9-acridinamine hydrochloride] | – | – | rapidly absorbed and eliminated
